Results on one molecule are retold here after patent publication US11278515B2, “Composition for improvement of sleep or for prevention or treatment of sleep disorders, containing beta-lapachone” (AJOU UNIVERSITY INDUSTRY-ACADEMIC COOPERATION FOUNDATION, priority 2016, dated 2022).

The subject of this test is mice. Kind of test: pentobarbital-induced sleep test in mice (sleep latency and total sleeping time). In kind it is in vivo. Particulars: 30 minutes before pentobarbital 45 mg/kg i.p. The method, then: A sleep disorder refers to syndromes in which one cannot fall asleep well and the total sleeping time is short. In order to confirm the effect of improving the sleep quality of beta-lapachone, mice were purchased from Orient Bio Co. Beta-lapachone (Sigma Aldrich) was administered once intraperitoneally or orally to mice at a dose of 0.03, 0.1, 0.3, or 1 mg/kg by concentration, respectively, 30 minutes before induction of sleep, and 0.9% physiological saline was administered to the control mice, and 1 mg/kg of diazepam (MYUNG IN Pharm. Co.), most popular used sleeping pill, was administered intraperitoneally or orally to the positive control mice. 45 mg/kg of pentobarbital ([…] Pharm. Co., Ltd.), a commercially used sedative and sleeping pill, was intraperitoneally administered to mice to induce sleeping after 30 minutes of the above administration.

Take `CC1(C)CCC2=C(O1)c1ccccc1C(=O)C2=O` [beta-lapachone]: the sleep latency result is, setting by setting: (single intraperitoneal administration at 0.03, 0.1, 0.3 or 1 mg/kg, FIG. 1) “shortened in a concentration-dependent manner”; (single oral administration at 0.03, 0.1, 0.3 or 1 mg/kg, FIG. 3) “shortened in a concentration-dependent manner”. In addition, the total sleeping time entry (single intraperitoneal administration at 0.03, 0.1, 0.3 or 1 mg/kg, FIG. 2) is “increased in a concentration-dependent manner” and the total sleeping time entry (single oral administration at 0.03, 0.1, 0.3 or 1 mg/kg, FIG. 4) is given as “increased in a concentration-dependent manner”.
